Results: patent US9040240B2, “Arsenic assay using ELISA” (UNIVERSITE DE LORRAINE, priority 2011, dated 2015)

How the values were obtained:
human = details: ingestion; cited from earlier work
[1] = biological target: T1, ArsRFlagN protein (SEQ ID NO. 9) bound to Opars1 DNA fragment (Escherichia coli, UniProt P37309); assay: ELISA arsenic assay: ArsRFlagN protein remaining bound to Opars1 DNA fragment on streptavidin microplate, luminescence (CDP*); assay type: binding, Escherichia coli K12 strain MG1655; details: 60 min 25° C.
T1 construct: made in house; host or cells: Escherichia coli M15[pREP4] with plasmid pQEarsRFlagN (pQE70)
T1 sequence (P37309 with tags, fused parts or gaps): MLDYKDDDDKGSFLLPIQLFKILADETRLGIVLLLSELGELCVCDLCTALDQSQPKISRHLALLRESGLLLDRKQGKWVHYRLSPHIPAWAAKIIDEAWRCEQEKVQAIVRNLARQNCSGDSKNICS
Experimental: Different dilutions of arsenic solution to be assayed are added (4), the arsenic binds to the ArsR protein (5) that is separated from its site. These proteins are eliminated by washing. Only the ArsR proteins that have not bound arsenic remain attached to the DNA (6).
A specific antibody of the Flag sequence is added (7). That antibody binds the Flag sequence of the ArsR protein bound to the DNA. The antibody is coupled with an enzyme, alkaline phosphatase for example. Any antibodies not bound are eliminated by washing.
A substrate of the enzyme is added in the wells. Light is emitted when the substrate is cleaved by the enzyme (8). […] The quantity of arsenic contained in the sample is obtained by comparing the results with a standard curve.
In this example, the used DNA fragment containing the binding site of the ArsR protein is composed of 254 base pairs (SEQ ID NO. 1, called “Opars1” herein). Opars1 sequence has been obtained by PCR (DNA polymerase chain reaction) amplification using the primers Opars1L (SEQ ID NO. 2) and Opars1R (SEQ ID NO. 3). The chromosomal DNA of the Escherichia coli K12 bacteria strain MG1655 (ATCC 47076) was used as a template for the PCR amplification. Biotin was added on the nucleotide at position 5′ during synthesis of the Opars1L primer. Biotinylated Opars1 sequences, that is to say sequences with a biotin in position 5′, were thus obtained.
A “NUNC Immobilizer (trademark) Streptavidin” microplate (Nunc Streptavidin Microplate, Dominique Dutscher (ref. 056212), Brumath, France) with 96 wells with a useful volume of 100 μl each and whose surface is functionalized with streptavidin, was used. The wells of this microplate were washed three times using 300 μl of PBST solution.
A solution containing Opars1 DNA fragments was diluted in PBS solution to obtain a DNA concentration of 0.2 μM. 100 μl of that solution were placed in each well of the “NUNC Immobilizer (trademark) Streptavidin” microplate. The microplate was incubated for 60 minutes at 25° C., to enable binding of the DNA in the wells.
(§1) The unbound DNA was eliminated by three successive washes using 300 μl of PBST per well.
The ArsR protein of sequence SEQ ID NO. 4 corresponds to the protein that regulates the Ars operon of Escherichia coli K12 strain MG1655. The arsR gene of sequence SEQ ID NO. 5 coding that protein was amplified from the chromosomal DNA of that strain using the primers arsRR (SEQ ID NO. 6) and arsRL (SEQ ID NO. 7), and cloned in expression vector pQE70 (Qiagen) according to the protocol described in the document “The QiaExpressionist: A handbook for high-level expression and purification of 6×His-tagged proteins. June 2003. Fifth ed., Qiagen” [12]. A Flag sequence (SEQ ID NO. 10) was inserted in the N-terminal region of the ArsR protein and named “ArsRFlagN” (SEQ ID NO. 9). The Flag sequence is recognized by anti-Flag antibodies (Ref. A9469, Sigma Aldrich, Saint-Quentin Fallavier, France). This addition will allow detecting and assaying the ArsR protein more efficiently.
The 200 μg of ArsRFlagN proteins produced were diluted to 1/100 in PBST buffer. 100 μl of that solution were added in each of the assay wells. The microplate was incubated for 60 minutes at 25° C., to enable the attachment of the ArsRFlagN proteins on the DNA in the wells. The amount of ArsRFlagN proteins added per well was estimated at about 0.4 μg.
(§2) The unbound proteins were eliminated by three successive washes using 300 μl of PBST per well.
A DNA fragment containing the ArsR protein binding site was attached to a support in the same way as that set out in example 2 above.
A solution containing the ArsR protein was added according to the protocol presented in example 3 above, to enable the protein to bind with the DNA.
6 dilutions of arsenic solution, at 0.375 μg/L, 0.750 μg/L, 1.875 μg/L, 7.500 μg/L, 18.750 μg/L and 37.500 μg/L respectively, were prepared in PBS to provide a standard range. […]

[2] = biological target: T2, ArsRFlagN-6His protein (SEQ ID NO. 22) bound to Pars2Lbio/Pars2R DNA fragment (Escherichia coli, UniProt P37309); assay: ELISA arsenic assay: ArsRFlagN-6His protein remaining bound to Pars2Lbio/Pars2R DNA fragment on streptavidin microplate, luminescence (CDP*); assay type: binding; details: 60 min 25° C.
T2 construct: made in house; host or cells: Escherichia coli C43(DE3) pLysS, vector pET28b(+)
T2 sequence (P37309 with tags, fused parts or gaps): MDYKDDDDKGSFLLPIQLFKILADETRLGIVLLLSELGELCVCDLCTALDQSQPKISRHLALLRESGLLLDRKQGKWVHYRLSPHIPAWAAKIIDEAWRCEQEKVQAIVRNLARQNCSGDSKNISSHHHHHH
Experimental: In this example, the used DNA fragment containing the binding site of the ArsRFlagN-6His protein (SEQ ID NO. 22) is composed of a fragment of 41 biotinylated bases in position 5′ (SEQ ID NO. 25, named “Pars2Lbio”) hybridized to a further DNA fragment with 33 bases (SEQ ID NO 26, named “Pars2R”). The sequences Pars2Lbio and Pars2R were obtained by chemical synthesis (Eurofins MWG Operon, Ebersberg, Germany).
The biotinylated oligonucleotide (“Pars2Lbio”) was used at a concentration of 1 to 10 nM. The complementary oligonucleotide (“Pars2R”) was added in excess to enhance formation of the double strand. It was diluted in PBST buffer (between 1 and 10 nM, ideally 5, for the biotinylated oligonucleotide; between 4 and 40 nM, ideally 20, for the complementary oligonucleotide). The mixture was heated for one minute at 65° C. to eliminate any secondary structures that could have been formed by each oligonucleotide.
A “NUNC Immobilizer (trademark) Streptavidin” microplate (Nunc Streptavidin Microplate, Dominique Dutscher (ref. 056212), Brumath, France) with 96 wells with a useful volume of 100 μl each and whose surface is functionalized with streptavidin, was used. The wells in the microplate were washed three times using of 300 μl of PBST solution.
The DNA solution was then distributed in the microplate wells (100 μl per well). The microplate was placed at 25° C. for one hour to enable binding of the DNA fragments thanks to the biotin-streptavidin affinity.
as §1
100 μl of PBSTLE solution were added in the microplate wells. The microplate was incubated for 60 minutes at 25° C. to enable non-specific binding of the milk proteins on the bottom and the walls of the well. This step limits non-specific binding of the ArsRFlagN-6His protein (SEQ ID NO. 22) and the conjugated anti-Flag antibodies (Ref. A9469, Sigma Aldrich, Saint-Quentin Fallavier, France). The unbound proteins were eliminated by three successive washes of the well using 300 μl of PBST buffer.
A solution of ArsRFlagN-6His protein (SEQ ID NO. 22) at 1 μg/ml was prepared in PBST buffer. 100 μl of this solution were added in each of the assay wells. The microplate was incubated for 60 minutes at 25° C., to enable the ArsRFlagN-6His proteins to bind with the DNA in the wells.
as §2
The DNA fragment defined in example 6 and containing the ArsR protein binding site was bound to a support in the same way as presented in example 6 above.
A solution containing the ArsRFlagN-6His protein (SEQ ID NO. 22) was added according to the protocol presented in example 7 above, to enable the protein to bind with the DNA.
5 dilutions of arsenic solution, at 0 μg/L, 2 μg/L, 3 μg/L, 4 μg/L, and 5 μg/L respectively, were prepared in PBS to provide a control sample range. 100 μl of each of these dilutions were added respectively in a microplate well.
The microplate was incubated for 60 minutes at 25° C., to enable the arsenic to bind with the ArsRFlagN-6His proteins (SEQ ID NO. 22).
The unbound ArsRFlagN-6His proteins (SEQ ID NO. 22) were eliminated by three successive washed using 300 μl of PBST per well.
100 μl of a solution of anti-Flag antibody (Ref. A9469, Sigma Aldrich, Saint-Quentin Fallavier, France), conjugated with alkaline phosphatase, were added in each wells. The antibody was previously diluted in PBST in compliance with the supplier's recommendations (dilution factor 1/500). The microplate was incubated for 60 minutes at 25° C. to enable the antibody to bind with the ArsRFlagN-6His proteins.
The unbound anti-Flag antibodies were eliminated by three successive washes using 300 μl of PBST per well.
A CDP* solution at 0.25 mM was prepared in buffer 1. 100 μl of CDP* solution were placed in the different assay wells. The light emitted was immediately measured using a luminometer (LumiStar, BMG Lab Technologies).

[3] = Storage stability of purified ArsRFlagN-6His protein; assay type: physicochemical
Experimental: The ArsRFlagN-6His protein (SEQ ID NO. 22) was purified by affinity chromatography (IMAC). An Ni-NTA column was balanced with PBS buffer+10 mM of imidazole. The clear lysate was deposited on the column. The buffer was eluted by gravity. The column was firstly washed using PBS buffer+10 mM of imidazole (10 column volumes) and secondly using PBS buffer+20 mM of imidazole. The ArsR protein was eluted using an imidazole gradient in PBS buffer (PBS buffer with increasing concentrations of imidazole: 30 to 400 mM). The fractions collected were analysed (SDS-PAGE gel). Fractions that contained the greatest quantity of protein were stored at 4° C. (3 ml of PBS buffer, imidazole 300 mM, pH 7.5). ArsR protein concentration was of 1 mg/ml. The protein is stable for 15 days at 4° C. It can be stored for several weeks at lower temperatures (−20 and −80° C.) in the presence of a cryoprotector (glycerol at 50%, volume/volume).

## [AsH3] [arsenic]
human
  amount of arsenic ingested causing acute intoxication: 1 to 2 mg/kg/day

## arsenite [AsIII]
[1]; AsIII 0.005 μM (0.375 μg/L)
  Luminescence value (L): 6,426
  logL: 3.81
[1]; AsIII 0.01 μM (0.750 μg/L)
  Luminescence value (L): 5,808
  logL: 3.76
[1]; AsIII 0.025 μM (1.875 μg/L)
  Luminescence value (L): 5,023
  logL: 3.70
[1]; AsIII 0.100 μM (7.500 μg/L)
  Luminescence value (L): 4,422
  logL: 3.65
[1]; AsIII 0.250 μM (18.750 μg/L)
  Luminescence value (L): 3,776
  logL: 3.58
[1]; AsIII 0.500 μM (37.500 μg/L)
  Luminescence value (L): 2,831
  logL: 3.45
[2]; AsIII 0.027 μM (2 μg/L)
  Luminescence value (L): 4,710
  logL: 3.6730
[2]; AsIII 0.040 μM (3 μg/L)
  Luminescence value (L): 4,457
  logL: 3.6490
[2]; AsIII 0.053 μM (4 μg/L)
  Luminescence value (L): 4,061
  logL: 3.6086
[2]; AsIII 0.067 μM (5 μg/L)
  Luminescence value (L): 3,906
  logL: 3.5917

B1: ArsRFlagN-6His protein: recombinant E. coli ArsR regulator protein with N-terminal Flag peptide and polyhistidine tail (protein)
chain: MDYKDDDDKGSFLLPIQLFKILADETRLGIVLLLSELGELCVCDLCTALDQSQPKISRHLALLRESGLLLDRKQGKWVHYRLSPHIPAWAAKIIDEAWRCEQEKVQAIVRNLARQNCSGDSKNISSHHHHHH
modifications: ArsRFlagN-6His protein
notes: recombinant E. coli ArsR regulator protein with N-terminal Flag peptide and polyhistidine tail
[3]; 4° C., PBS buffer, imidazole 300 mM, pH 7.5, 1 mg/ml
  time the protein is stable: 15 days
[3]; −20 and −80° C., in the presence of glycerol at 50% (volume/volume)
  time the protein can be stored: several weeks
